Measured values from ChEMBL document CHEMBL5532691, “Anti-cancer activity and mechanism of flurbiprofen organoselenium compound RY-1-92 in non-small cell lung cancer” (RSC Med Chem, 2024).
Calls of active or inactive are those of the source. No cut-off for these calls is given here.

Legend:
NCI-H460 [1] = assay: Upregulation of Bax protein expression in human NCI-H460 cells at 10 uM by Western blot analysis; assay type: functional, cell-based
NCI-H460 [2] = assay: Antiproliferative activity against human NCI-H460 cells assessed as inhibition of cell growth incubated for 48 hrs by MTT assay; assay type: functional, cell-based
NCI-H460 [3] = assay: Downregulation of cyclin B1 protein expression in human NCI-H460 cells at 30 uM by Western blot analysis; assay type: functional, cell-based
Lewis lung carcinoma [4] = assay: Antitumor activity against mouse Lewis lung carcinoma cell line xenografted in C57BL/6 mouse model assessed as reduction in tumor weight at 10 to 20 mg/kg, ip measured every three days for 15 days […]; assay type: functional, organism-based; settings: dose 10-20 mg/kg, time 15.0 day
NCI-H460 [5] = assay: Induction of apoptosis in human NCI-H460 cells assessed as early apoptotic cells at 10 uM measured after 48 hrs by annexin V-FITC/PI staining based flow cytometry analysis (reference value: 0.32%); assay type: functional
A549 [6] = assay: Downregulation of P38 phosphorylation expression in human A549 cells at 10 to 30 uM by Western blot analysis; assay type: functional, cell-based; settings: dose 10-30 µM
A549 [7] = assay: Induction of apoptosis in human A549 cells assessed as early apoptotic cells at 10 uM measured after 48 hrs by annexin V-FITC/PI staining based flow cytometry analysis (reference value: 0.59%); assay type: functional
NCI-H460 [8] = assay: Inhibition of cell migration in human NCI-H460 cells at 10 to 30 uM measured after 24 hrs by wound healing assay relative to control; assay type: functional; settings: dose 10-30 µM
NCI-H460 [9] = assay: Induction of cell cycle arrest in human NCI-H460 cells assessed as accumulation of cells as S phase at 10 uM measured after 24 hrs by propidium iodide staining based flow cytometry analysis (reference value: 7.09%); assay type: functional
A549 [10] = assay: Induction of apoptosis in human A549 cells assessed as viable cells at 30 uM measured after 48 hrs by annexin V-FITC/PI staining based flow cytometry analysis (reference value: 80.26%); assay type: functional; settings: read-out: Activity
A549 [11] = assay: Induction of apoptosis in human A549 cells assessed as late apoptotic cells at 10 uM measured after 48 hrs by annexin V-FITC/PI staining based flow cytometry analysis (reference value: 15.12%); assay type: functional
NCI-H460 [12] = assay: Downregulation of JNK phosphorylation expression in human NCI-H460 cells at 10 to 30 uM by Western blot analysis; assay type: functional, cell-based; settings: dose 10-30 µM
A549 [13] = assay: Upregulation of Bax/Bcl2 ratio in human A549 cells at 10 to 30 uM by Western blot analysis; assay type: functional, cell-based; settings: dose 10-30 µM
A549 [14] = assay: Induction of apoptosis in human A549 cells assessed as early apoptotic cells at 30 uM measured after 48 hrs by annexin V-FITC/PI staining based flow cytometry analysis (reference value: 0.59%); assay type: functional
A549 [15] = assay: Induction of apoptosis in human A549 cells assessed as late apoptotic cells at 30 uM measured after 48 hrs by annexin V-FITC/PI staining based flow cytometry analysis (reference value: 15.12%); assay type: functional
NCI-H460 [16] = assay: Induction of apoptosis in human NCI-H460 cells assessed as early apoptotic cells at 30 uM measured after 48 hrs by annexin V-FITC/PI staining based flow cytometry analysis (reference value: 0.32%); assay type: functional
A549 [17] = assay: Induction of cell cycle arrest in human A549 cells assessed as accumulation of cells as S phase at 10 uM measured after 24 hrs by propidium iodide staining based flow cytometry analysis (reference value: 19.57%); assay type: functional
Lewis lung carcinoma [18] = assay: Antitumor activity against mouse Lewis lung carcinoma cell line xenografted in C57BL/6 mouse model assessed as downregulation of CDK1 expression at 10 to 20 mg/kg by Western blot analysis; assay type: functional, organism-based; settings: dose 10-20 mg/kg
NCI-H460 [19] = assay: Induction of apoptosis in human NCI-H460 cells assessed as late apoptotic cells at 10 uM measured after 48 hrs by annexin V-FITC/PI staining based flow cytometry analysis (reference value: 5.41%); assay type: functional
A549 [20] = assay: Downregulation of cyclin B1 protein expression in human A549 cells at 10 to 30 uM by Western blot analysis; assay type: functional, cell-based; settings: dose 10-30 µM
NCI-H460 [21] = assay: Induction of cell cycle arrest in human NCI-H460 cells assessed as accumulation of cells as G2 phase at 10 uM measured after 24 hrs by propidium iodide staining based flow cytometry analysis (reference value: 8.37%); assay type: functional
NCI-H460 [22] = assay: Downregulation of AKT phosphorylation expression in human NCI-H460 cells at 10 to 30 uM by Western blot analysis; assay type: functional, cell-based; settings: dose 10-30 µM
NCI-H460 [23] = assay: Downregulation of TRPV1 expression level in human NCI-H460 cells at 10 to 30 uM by Western blot analysis; assay type: functional, cell-based; settings: dose 10-30 µM
A549 [24] = assay: Downregulation of TRPV1 expression level in human A549 cells at 10 to 30 uM by Western blot analysis; assay type: functional, cell-based; settings: dose 10-30 µM
NCI-H460 [25] = assay: Inhibition of colony formation in human NCI-H460 cells at 30 uM measured after 48 hrs by giemsa staining based analysis relative to control; assay type: functional
A549 [26] = assay: Downregulation of JNK phosphorylation expression in human A549 cells at 10 to 30 uM by Western blot analysis; assay type: functional, cell-based; settings: dose 10-30 µM
NCI-H460 [27] = assay: Induction of apoptosis in human NCI-H460 cells assessed as necrotic cells at 10 uM measured after 48 hrs by annexin V-FITC/PI staining based flow cytometry analysis (reference value: 2.47%); assay type: functional
NCI-H460 [28] = assay: Induction of cell cycle arrest in human NCI-H460 cells assessed as accumulation of cells as G2 phase at 30 uM measured after 24 hrs by propidium iodide staining based flow cytometry analysis (reference value: 8.37%); assay type: functional
Lewis lung carcinoma [29] = assay: Antitumor activity against mouse Lewis lung carcinoma cell line xenografted in C57BL/6 mouse model assessed as increase in bax protein expression at 10 to 20 mg/kg by Western blot analysis; assay type: functional, organism-based; settings: dose 10-20 mg/kg
NCI-H460 [30] = assay: Induction of cell cycle arrest in human NCI-H460 cells assessed as accumulation of cells as S phase at 30 uM measured after 24 hrs by propidium iodide staining based flow cytometry analysis (reference value: 7.09%); assay type: functional

CC(C(=O)NCCC[Se]C(F)(F)F)c1ccc(-c2ccccc2)c(F)c1 (stereo unspecified)
Activity (NCI-H460 [1]): Active
IC50 (NCI-H460 [2]; NCI-H460, 48 h): 78.2 µM
Activity (NCI-H460 [2]; dose 3-300 µM): Dose-Dependent Effect
Activity (NCI-H460 [3]): Active
Activity (Lewis lung carcinoma [4]): Active
Activity (NCI-H460 [5]): 0.36%
Activity (A549 [6]): Active
Activity (A549 [7]): 0.53%
inhibition (INH) (NCI-H460 [8]): 47.5%
Activity (NCI-H460 [9]): 10.6%
viability at 30 µM (A549 [10]): 55%
Activity (A549 [11]): 20.25%
Activity (NCI-H460 [12]): Active
Activity (A549 [13]): Active
Activity (A549 [14]): 1.13%
Activity (A549 [15]): 35.06%
Activity (NCI-H460 [16]): 1.97%
Activity (A549 [17]): 13.83%
Activity (Lewis lung carcinoma [18]): Active
Activity (NCI-H460 [19]): 6.97%
Activity (A549 [20]): Active
Activity (NCI-H460 [21]): 10.69%
Activity (NCI-H460 [22]): Active
Activity (NCI-H460 [23]): Active
Activity (A549 [24]): Active
inhibition at 30 µM (NCI-H460 [25]): 88%
Activity (A549 [26]): Active
Activity (NCI-H460 [27]): 1.67%
Activity (NCI-H460 [28]): 83.13%
Activity (Lewis lung carcinoma [29]): Active
Activity (NCI-H460 [30]): 11.14%
